Ki data for 59 molecules are collected here from patent US7550469B2, “Heterocyclic amide derivatives and their use as dopamine D3 receptor ligands” (Aventis Pharmaceuticals Inc., priority 2001, dated 2009).

This test addresses T1, cloned human dopamine D3 receptors (Homo sapiens, UniProt P35462).
T1 construct: expressed in transfected cells; membrane homogenate
The test can be described thus: [N-Methyl-3H]Spiroperidol binding to cloned human dopamine D3 receptors (Protocol 1). The essentials: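 Membranes from CHO cells stably expressing cloned human D3 receptor were used for [N-methyl-3H]spiroperidol (60-90 Ci/mmol) binding. Assay buffer was 0.05 M Tris HCl pH 7.7 with 120 mM NaCl, 5 mM KCl, 2 mM CaCl2 and 1 mM MgCl2, optionally 0.1% ascorbic acid; total ligand concentration calculated from added CPM.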

[1] abbreviates: the 18th table, read-out: D3 Ki.
The mark [2] stands for this setting: the 16th table, read-out: D3 Ki.
Setting [3] is: the 14th table, read-out: D3 Ki.

Molecules are shown by their SMILES. Like-named read-outs stand apart in the source and are kept apart here.

T1 sequence (P35462 whole entry): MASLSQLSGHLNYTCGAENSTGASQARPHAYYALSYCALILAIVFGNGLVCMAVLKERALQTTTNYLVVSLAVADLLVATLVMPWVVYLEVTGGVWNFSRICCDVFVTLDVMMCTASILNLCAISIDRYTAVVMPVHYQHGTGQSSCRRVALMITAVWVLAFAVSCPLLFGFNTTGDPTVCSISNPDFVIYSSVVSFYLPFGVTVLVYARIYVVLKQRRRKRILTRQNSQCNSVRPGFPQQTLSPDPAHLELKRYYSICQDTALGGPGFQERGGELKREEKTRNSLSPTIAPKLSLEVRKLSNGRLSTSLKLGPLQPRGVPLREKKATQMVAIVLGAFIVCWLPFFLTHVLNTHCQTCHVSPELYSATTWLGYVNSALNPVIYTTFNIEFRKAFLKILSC

Consider `CS(=O)(=O)c1sc(C(=O)NCc2sccc2CN2CCN(c3csc4cc(F)ccc34)CC2)c2c1C=CCC2` [compound 826315], for which the Ki under setting [1] is 31 nM.

Turning to `O=C(NCc1sccc1CN1CCN(c2csc3cc(F)ccc23)CC1)c1csc(-c2cccnc2)n1` [compound 826316], the Ki under setting [1] turned out to be 32 nM.

In the case of `O=C(NCc1sccc1CN1CCN(c2csc3cc(F)ccc23)CC1)c1csnn1` [compound 826317], the Ki under setting [1] worked out at 48 nM.

Turning to `O=C(NCc1sccc1CN1CCN(c2csc3cc(F)ccc23)CC1)c1sccc1-n1cccc1` [compound 826318], the Ki under setting [1] came out at 90 nM.

Take `O=C(NCc1sccc1CN1CCN(c2csc3cc(F)ccc23)CC1)c1cc(-c2ccco2)nc2ccccc12` [compound 826319]: under setting [1], the Ki was determined as 273 nM.

For `O=C(NCc1sccc1CN1CCN(c2csc3cc(F)ccc23)CC1)c1cc2sccc2s1` [compound 826320], the Ki under setting [1] is 75.3 nM.

Turning to `Cc1nn(C)c2sc(C(=O)NCc3sccc3CN3CCN(c4csc5cc(F)ccc45)CC3)cc12` [compound 826321], the Ki under setting [1] came to 41.3 nM.

As to `O=C(NCc1sccc1CN1CCN(c2csc3cc(F)ccc23)CC1)c1cc2ccccc2[nH]1` [compound 826322], the Ki under setting [1] was determined as 296 nM.

Consider `COc1ccc2[nH]c(C(=O)NCc3sccc3CN3CCN(c4csc5cc(F)ccc45)CC3)cc2c1` [compound 826323], for which the Ki under setting [1] worked out at 67 nM.

Consider `Cn1c(C(=O)NCc2sccc2CN2CCN(c3csc4cc(F)ccc34)CC2)cc2ccccc21` [compound 826324], for which, under setting [1], the Ki came to 120 nM.

Consider `O=C(NCc1sccc1CN1CCN(c2csc3cc(F)ccc23)CC1)c1c[nH]c2ccccc12` [compound 826325], for which, under setting [1], the Ki came to 54 nM.

`O=C(NCc1sccc1CN1CCN(c2csc3cc(F)ccc23)CC1)c1cccc2[nH]ccc12` [compound 826326]: the Ki under setting [1] was determined as 71 nM.

As to `O=C(NCc1sccc1CN1CCN(c2csc3cc(F)ccc23)CC1)c1ccc2[nH]ccc2c1` [compound 826327], under setting [1], the Ki came to 20 nM.

With `O=C(NCc1sccc1CN1CCN(c2csc3cc(F)ccc23)CC1)c1ccc2cc[nH]c2c1` [compound 826328], the Ki under setting [1] stood at 28 nM.

With `O=C(NCc1sccc1CN1CCN(c2csc3cc(F)ccc23)CC1)c1n[nH]c2ccccc12` [compound 826329], the Ki under setting [1] came out at 14 nM.

For `CC1=C(C(=O)NCc2sccc2CN2CCN(c3csc4cc(F)ccc34)CC2)Cc2ccccc21` [compound 826330], the Ki under setting [1] worked out at 16 nM.

As to `O=C(NCc1sccc1CN1CCN(c2csc3cc(F)ccc23)CC1)c1cc2ccccc2o1` [compound 826331], the Ki under setting [1] was found to be 51 nM.

With `O=C(NC/C=C\CN1CCN(c2csc3cc(C(F)(F)F)ccc23)CC1)c1ccsc1` [compound 826332], the Ki (read-out: D3K1) was 20 nM.

Turning to `O=C(NC/C=C\CN1CCN(c2csc3cc(C(F)(F)F)ccc23)CC1)C1CCC1` [compound 826333], for the setting “read-out: D3K1”, the Ki was found to be 24 nM.

With `O=C(NC/C=C\CN1CCN(c2csc3cc(C(F)(F)F)ccc23)CC1)C1CCCC1` [compound 826334], where the note is “read-out: D3K1”, the Ki is 21 nM.

As for `O=C(NC/C=C\CN1CCN(c2csc3cc(C(F)(F)F)ccc23)CC1)c1ccccn1` [compound 826335], the Ki (read-out: D3K1) is 42 nM.

On to `O=C(NC/C=C\CN1CCN(c2csc3cc(C(F)(F)F)ccc23)CC1)c1cccnc1` [compound 826336], for which the Ki (read-out: D3K1) came out at 41 nM.

Turning to `O=C(NC/C=C\CN1CCN(c2csc3cc(C(F)(F)F)ccc23)CC1)c1ccccc1` [compound 826337], the Ki (read-out: D3K1) turned out to be 29 nM.

Regarding `O=C(NC/C=C\CN1CCN(c2csc3cc(C(F)(F)F)ccc23)CC1)c1cc(F)cc(F)c1` [compound 826338], the Ki (read-out: D3K1) turned out to be 93 nM.

For `O=C(NC/C=C\CN1CCN(c2csc3cc(C(F)(F)F)ccc23)CC1)C1CCCCC1` [compound 826339], the Ki (read-out: D3K1) is 24 nM.

`O=C(NC/C=C\CN1CCN(c2csc3cc(C(F)(F)F)ccc23)CC1)c1cccc(Cl)c1` [compound 826340]: the Ki (read-out: D3K1) worked out at 73 nM.

For `O=C(NC/C=C\CN1CCN(c2csc3cc(C(F)(F)F)ccc23)CC1)c1ccc(F)cc1` [compound 826341], the Ki (read-out: D3K1) turned out to be 11 nM.

In the case of `O=C(NC/C=C\CN1CCN(c2csc3cc(C(F)(F)F)ccc23)CC1)c1cccc(F)c1` [compound 826342], for the setting “read-out: D3K1”, the Ki came to 47 nM.

Take `N#Cc1cccc(C(=O)NC/C=C\CN2CCN(c3csc4cc(C(F)(F)F)ccc34)CC2)c1` [compound 826343]: the Ki (read-out: D3K1) came out at 53 nM.

For the molecule `COc1cccc(C(=O)NC/C=C\CN2CCN(c3csc4cc(C(F)(F)F)ccc34)CC2)c1` [compound 826344], the Ki (read-out: D3K1) is 29 nM.

Regarding `O=C(CCC1CCCC1)NC/C=C\CN1CCN(c2csc3cc(C(F)(F)F)ccc23)CC1` [compound 826345], the Ki (read-out: D3K1) was 77 nM.

Take `O=C(NC/C=C\CN1CCN(c2csc3cc(C(F)(F)F)ccc23)CC1)c1cccc(C(F)(F)F)c1` [compound 826346]: for the setting “read-out: D3K1”, the Ki worked out at 170 nM.

For the molecule `O=C(COc1ccccc1)NC/C=C\CN1CCN(c2csc3cc(C(F)(F)F)ccc23)CC1` [compound 826347], under “read-out: D3K1”, the Ki stood at 67 nM.

Take `O=C(NC/C=C\CN1CCN(c2csc3cc(C(F)(F)F)ccc23)CC1)c1ccc(OC(F)(F)F)cc1` [compound 826348]: where the note is “read-out: D3K1”, the Ki came to 61 nM.

Turning to `O=C(COCc1ccccc1)NC/C=C\CN1CCN(c2csc3cc(C(F)(F)F)ccc23)CC1` [compound 826349], the Ki (read-out: D3K1) worked out at 180 nM.

As for `O=C(NCCCCN1CCCN(c2csc3cc(F)ccc23)CC1)c1ccc2nonc2c1` [compound 826699], the Ki by setting is: (Table 2, read-out: D3K1) 6.73 nM; under setting [2], 6.73 nM.

As to `COc1ccc2[nH]c(C(=O)NCCCCCCN3CCN(c4csc5cc(C(F)(F)F)ccc45)CC3)cc2c1` [compound 826738], the Ki reads like this: (read-out: D3K1) 6.1 nM; under setting [3], 6.1 nM.

Turning to `Cn1c(C(=O)NCCCCCCN2CCN(c3csc4cc(C(F)(F)F)ccc34)CC2)cc2ccccc21` [compound 826739], the Ki was found to be 2.1 nM (read-out: D3K1) and 2.1 nM under setting [3].

Consider `O=C(NCCCCCCN1CCN(c2csc3cc(C(F)(F)F)ccc23)CC1)c1c[nH]c2ccccc12` [compound 826740], for which the Ki is 44 nM (read-out: D3K1) and 44 nM under setting [3].

For `O=C(NCCCCCCN1CCN(c2csc3cc(C(F)(F)F)ccc23)CC1)c1cccc2[nH]ccc12` [compound 826741], the Ki was 9.8 nM (read-out: D3K1) and 9.8 nM under setting [3].

With `O=C(NCCCCCCN1CCN(c2csc3cc(C(F)(F)F)ccc23)CC1)c1ccc2cc[nH]c2c1` [compound 826742], the Ki was 1.7 nM (read-out: D3K1) and 1.7 nM under setting [3].

As for `O=C(NCCCCCCN1CCN(c2csc3cc(C(F)(F)F)ccc23)CC1)c1n[nH]c2ccccc12` [compound 826743], the Ki (read-out: D3K1) was 15 nM and the Ki under setting [3] came out at 15 nM.

With `O=C(NCCCCCCN1CCN(c2csc3cc(C(F)(F)F)ccc23)CC1)c1cccs1` [compound 826746], the Ki is, setting by setting: (read-out: D3K1) 0.8 nM; under setting [3], 0.8 nM.

On to `O=C(NCCCCCCN1CCN(c2csc3cc(C(F)(F)F)ccc23)CC1)c1cccc(Cl)c1` [compound 826747], for which the Ki reads like this: (read-out: D3K1) 0.12 nM; under setting [3], 0.12 nM.

On to `COc1cc(OC)cc(C(=O)NCCCCCCN2CCN(c3csc4cc(C(F)(F)F)ccc34)CC2)c1` [compound 826748], for which the Ki came out at 4.9 nM (read-out: D3K1) and 4.9 nM under setting [3].

As for `O=C(NCCCCCCN1CCN(c2csc3cc(C(F)(F)F)ccc23)CC1)c1ccc(OC(F)(F)F)cc1` [compound 826749], the Ki was 8.7 nM (read-out: D3K1) and 8.7 nM under setting [3].

As to `O=C(NCCCCCCN1CCN(c2csc3cc(C(F)(F)F)ccc23)CC1)c1cccc2ccccc12` [compound 826750], the Ki by setting is: (read-out: D3K1) 3.2 nM; under setting [3], 3.2 nM.

On to `O=C(NCCCCCCN1CCN(c2csc3cc(C(F)(F)F)ccc23)CC1)c1ccc2ccccc2c1` [compound 826751], for which the Ki came to 2.8 nM (read-out: D3K1) and 2.8 nM under setting [3].

For `O=C(NCCCCCCN1CCN(c2csc3cc(C(F)(F)F)ccc23)CC1)c1cccc(C(F)(F)F)c1` [compound 826752], the Ki (read-out: D3K1) is 14 nM and the Ki under setting [3] came to 14 nM.

`Cc1ccccc1C(=O)NCCCCCCN1CCN(c2csc3cc(C(F)(F)F)ccc23)CC1` [compound 826753]: the Ki (read-out: D3K1) worked out at 4.4 nM and the Ki under setting [3] amounted to 4.4 nM.

Turning to `O=C(NCCCCCCN1CCN(c2csc3cc(C(F)(F)F)ccc23)CC1)c1cc2ccccc2s1` [compound 826754], the Ki is 3.2 nM (read-out: D3K1) and 3.2 nM under setting [3].

As for `O=C(NCCCCN1CCCN(c2csc3cc(F)ccc23)CC1)c1c2ccccc2cc2ccccc12` [compound 826762], the Ki amounted to 57 nM (Table 2, read-out: D3K1) and 57 nM under setting [2].

In the case of `O=C(NCCCCCN1CCN(c2csc3cc(C(F)(F)F)ccc23)CC1)c1cccs1` [compound 826764], the Ki was determined as 7.8 nM (read-out: D3K1) and 7.8 nM under setting [3].

Turning to `O=C(NCCCCCN1CCN(c2csc3cc(C(F)(F)F)ccc23)CC1)c1cccc(Cl)c1` [compound 826765], the Ki was found to be 23 nM (read-out: D3K1) and 23 nM under setting [3].

For the molecule `COc1cc(OC)cc(C(=O)NCCCCCN2CCN(c3csc4cc(C(F)(F)F)ccc34)CC2)c1` [compound 826766], the Ki reads like this: (read-out: D3K1) 11 nM; under setting [3], 11 nM.

With `O=C(NCCCCCN1CCN(c2csc3cc(C(F)(F)F)ccc23)CC1)c1ccc(OC(F)(F)F)cc1` [compound 826767], the Ki is, setting by setting: (read-out: D3K1) 14 nM; under setting [3], 14 nM.

Consider `O=C(NCCCCCN1CCN(c2csc3cc(C(F)(F)F)ccc23)CC1)c1cccc2ccccc12` [compound 826768], for which the Ki (read-out: D3K1) was found to be 23 nM and the Ki under setting [3] was found to be 23 nM.

For the molecule `O=C(NCCCCCN1CCN(c2csc3cc(C(F)(F)F)ccc23)CC1)c1ccc2ccccc2c1` [compound 826769], the Ki is, setting by setting: (read-out: D3K1) 7 nM; under setting [3], 7 nM.

Consider `O=C(NCCCCCN1CCN(c2csc3cc(C(F)(F)F)ccc23)CC1)c1cccc(C(F)(F)F)c1` [compound 826770], for which the Ki is 14 nM (read-out: D3K1) and 14 nM under setting [3].
